Measurements: patent publication US20100279990A1, “ANTIPROLIFERATIVE COMPOUNDS, COMPOSITIONS AND METHODS OF USE” (RAMOT AT TEL-AVIV UNIVERSITY LTD., priority 2006, published 2010)
Where two headings read alike, the source gives them in different places.

Assays:
PXF 1752L = experiment: Monolayer Assay, PI: PXF 1752L (Pleuramesothelioma); format: cell-based, human
Source text: (§1) This example illustrates cell proliferation data in the form of IC50, IC70 and IC90 values obtained by exposure of human cancer cell-lines to compound (Ia). […].

[1] = system: Caspase 3 activity in human Jurkat lymphoma cells; experiment: Caspase 3 activity in human Jurkat lymphoma cell-line, fluorimetric Ac-DEVD-AMC; format: cell-based; conditions: 4 hr after exposure, compared to vehicle treated cells
Procedure: This example illustrates Caspase 3 activity data obtained by administering compound (Ia) to a human Jurkat lymphoma cell-line. The results are depicted FIG. 8A. Each point is the mean of 2 determinations.
Caspase 3 activity was measured by an enzymatic fluorimetric method using a fluorigenic substrate (Ac-DEVD-AMC), which produces blue fluorescence detected at 360 nm wavelength. See Garcia-Calvo et al., J Biol Chem, 273(49), 32608-13 (1998). When AMC is cleaved from the substrate by caspase-3, and caspase-3-like enzymes, it produces a yellow-green fluorescence, which can be monitored by a fluorimeter at 460 nm. The amount of yellow green fluorescence is proportional to the activity of caspase-3 in the cell extract sample.
The human Jurkat lymphoma cell-line, as used in FIG. 8A, and the human MDR colon cancer LS1034 lysates, as used in FIG. 8B, were prepared by Triton X-100 extraction 4 hr after exposure to the applicable compound (10 or 20 μM) or the vehicle. Whole cell lysate was added to a buffer containing 100 μM peptide substrate, 100 mM HEPES, 10% glycerol, 1 mM EDTA and 10 mM dithiothreitol. Measurements were taken every 5 min for 80 min. These experiments were also monitored in the presence of a specific caspase-3 inhibitor, DEVD-AMC-CHO, which was added after 45 or 60 min to the reaction mixture, to ascertain the specificity of the enzyme.

LXF 1121L = experiment: Monolayer Assay, PI: LXF 1121L (Lung); format: cell-based, human
Source text: as §1

XCL A431 = experiment: Monolayer Assay, PI: XCL A431; format: cell-based, human
Source text: as §1

PAXF PANC1 = experiment: Monolayer Assay, PI: PAXF PANC1; format: cell-based, human
Source text: as §1

[2] = system: human Jurkat lymphoma cells; experiment: Viability of human Jurkat lymphoma cells, alamar blue staining; format: cell-based; conditions: for IC50: Homo sapiens, 48 hr, alamar blue
Procedure: This example illustrates cell viability data derived from the incubation of a human. […] The results are depicted in FIGS. 1A, 1B, and 1C. […] See Nociari et al., J. Immunol. […] Each point represents the mean+/−SE of 4 determinations.

LXF 629L = experiment: Monolayer Assay, PI: LXF 629L (Lung); format: cell-based, human
Source text: as §1

[3] = system: CEM/C1 human leukemia cells; experiment: Cell proliferation of CEM/C1 human leukemia cells, 3H thymidine incorporation; format: cell-based
Procedure: […] Cells, 10,000/well, were harvested and the incorporated radioactivity was determined by liquid scintillation in a beta counter.

[4] = system: human Jurkat lymphoma cells; experiment: Viability of human Jurkat lymphoma cells, dexamethasone alone and in combination; format: cell-based
UXF 1138L = experiment: Monolayer Assay, PI: UXF 1138L (Uterus Body); format: cell-based, human
Source text: as §1

MAXF 401NL = experiment: Monolayer Assay, PI: MAXF 401NL (Breast); format: cell-based, human
Source text: as §1

[5] = system: CEM/C1 cell-lines (camptothecin resistant human T-cell leukemia); experiment: Viability of CEM/C1 cell-line, alamar blue; format: cell-based; conditions: 1-30 μM
Source text: This cell-line is a camptothecin (CPT) resistant derivative of the human T-cell leukemia purchased from ATCC (USA). […] The results are depicted in FIG. 14. Each point represents the mean+/−SEM of 4 determinations.

[6] = system: BCL2 expression in human Jurkat lymphoma cells; experiment: Western blot of BCL2 expression in human Jurkat lymphoma cell-line; format: cell-based; conditions: FIG. 10
Source text: This example illustrates western blot data corresponding to BCL2 expression in a human Jurkat lymphoma cell-line treated with different concentrations of compound (Ia). The results are depicted in FIG. 10.

For `CN[C@H]1CC[C@@H](c2ccc(Cl)c(Cl)c2)c2ccc(C#CCCCO)cc21` [compound (Ia), (1S-cis)-4-(3,4-dichlorophenyl)-7-(5-hydroxy-1-pentyn-1-yl)-1,2,3,4-tetrahydro-N-methyl-1-naphthalenamine hydroiodide], the “Test/Control (%)” value (PXF 1752L; 2.3 μg/ml) was 81%, the Test/Control activity class (PXF 1752L; 2.3 μg/ml) was “− (− (T/C = 50))” and the “Test/Control (%)” value (PXF 1752L; 7.5 μg/ml) was 27%. For the same molecule, the Test/Control activity class (PXF 1752L; 7.5 μg/ml) was “++ (++ (10 <= T/C < 30))”, the “Test/Control (%)” value (PXF 1752L; 23. μg/ml) was 5% and the Test/Control activity class (PXF 1752L; 23. μg/ml) was “+++ (+++ (T/C < 10))”. For the same molecule, the “Test/Control (%)” value (PXF 1752L; 75. μg/ml) was 3%, the Test/Control activity class (PXF 1752L; 75. μg/ml) was “+++ (+++ (T/C < 10))” and the “Test/Control (%)” value (PXF 1752L; .75 μg/ml) was 99%. For the same molecule, the Test/Control activity class (PXF 1752L; .75 μg/ml) was “− (− (T/C = 50))”, the “Caspase 3 activity” value [1] was “increase in the activity of the caspase-3” and the “Test/Control (%)” value (LXF 1121L; 2.3 μg/ml) was 104%. The Test/Control activity class (LXF 1121L; 2.3 μg/ml) was “− (− (T/C = 50))”, the “Test/Control (%)” value (LXF 1121L; 7.5 μg/ml) was 72% and the Test/Control activity class (LXF 1121L; 7.5 μg/ml) was “− (− (T/C = 50))”. For the same molecule, the “Test/Control (%)” value (LXF 1121L; 23. μg/ml) was 2%, the Test/Control activity class (LXF 1121L; 23. μg/ml) was “+++ (+++ (T/C < 10))” and the “Test/Control (%)” value (LXF 1121L; 75. μg/ml) was 1%. The Test/Control activity class (LXF 1121L; 75. μg/ml) was “+++ (+++ (T/C < 10))”, the “Test/Control (%)” value (LXF 1121L; .75 μg/ml) was 103% and the Test/Control activity class (LXF 1121L; .75 μg/ml) was “− (− (T/C = 50))”. The “Test/Control (%)” value (XCL A431; 2.3 μg/ml) was 94%, the Test/Control activity class (XCL A431; 2.3 μg/ml) was “− (− (T/C = 50))” and the “Test/Control (%)” value (XCL A431; 7.5 μg/ml) was 6%. For the same molecule, the Test/Control activity class (XCL A431; 7.5 μg/ml) was “+++ (+++ (T/C < 10))”, the “Test/Control (%)” value (XCL A431; 23. μg/ml) was 3% and the Test/Control activity class (XCL A431; 23. μg/ml) was “+++ (+++ (T/C < 10))”. The “Test/Control (%)” value (XCL A431; 75. μg/ml) was 2%, the Test/Control activity class (XCL A431; 75. μg/ml) was “+++ (+++ (T/C < 10))” and the “Test/Control (%)” value (XCL A431; .75 μg/ml) was 100%. For the same molecule, the Test/Control activity class (XCL A431; .75 μg/ml) was “− (− (T/C = 50))”, the “Test/Control (%)” value (PAXF PANC1; 2.3 μg/ml) was 98% and the Test/Control activity class (PAXF PANC1; 2.3 μg/ml) was “− (− (T/C = 50))”. The “Test/Control (%)” value (PAXF PANC1; 7.5 μg/ml) was 33%, the Test/Control activity class (PAXF PANC1; 7.5 μg/ml) was “+ (+ (30 <= T/C < 50))” and the “Test/Control (%)” value (PAXF PANC1; 23. μg/ml) was 3%. The Test/Control activity class (PAXF PANC1; 23. μg/ml) was “+++ (+++ (T/C < 10))”, the “Test/Control (%)” value (PAXF PANC1; 75. μg/ml) was 4% and the Test/Control activity class (PAXF PANC1; 75. μg/ml) was “+++ (+++ (T/C < 10))”. For the same molecule, the “Test/Control (%)” value (PAXF PANC1; .75 μg/ml) was 105%, the Test/Control activity class (PAXF PANC1; .75 μg/ml) was “− (− (T/C = 50))” and the IC50 ([2]; FIG. 1A, read-out: IC50, anti-proliferative activity) was 12.5 µM. For the same molecule, the IC50 ([2]; FIG. 1B, read-out: IC50, decrease in cell viability) was 16.2 µM, the “potency compared with sertraline” value ([2]; lower concentrations (1-10 μM), FIG. 1B) was “higher potency than sertraline” and the “Test/Control (%)” value (LXF 629L; 2.3 μg/ml) was 94%. For the same molecule, the Test/Control activity class (LXF 629L; 2.3 μg/ml) was “− (− (T/C = 50))”, the “Test/Control (%)” value (LXF 629L; 7.5 μg/ml) was 4% and the Test/Control activity class (LXF 629L; 7.5 μg/ml) was “+++ (+++ (T/C < 10))”. For the same molecule, the “Test/Control (%)” value (LXF 629L; 23. μg/ml) was 1%, the Test/Control activity class (LXF 629L; 23. μg/ml) was “+++ (+++ (T/C < 10))” and the “Test/Control (%)” value (LXF 629L; 75. μg/ml) was 2%. The Test/Control activity class (LXF 629L; 75. μg/ml) was “+++ (+++ (T/C < 10))”, the “Test/Control (%)” value (LXF 629L; .75 μg/ml) was 99% and the Test/Control activity class (LXF 629L; .75 μg/ml) was “− (− (T/C = 50))”. The “effect compared to sertraline and paroxetine” value [3] was “significantly higher effects compared to sertraline and paroxetine”, the cell proliferation ([3]; 1 μM, 3H thymidine incorporation 24 hours) was 38.8 % of controls and the inhibition at 10 µM ([3]; Homo sapiens, 10 μM, 3H thymidine incorporation) was ~95%. For the same molecule, the “effect on cell proliferation” value ([3]; already evident at 1 μM) was “dose dependent decrease in cell proliferation”, the “inhibition of cell viability compared with sertraline and paroxetine” value ([4]; FIG. 13A) was “higher than that produced by either sertraline or paroxetine” and the cytotoxicity at 20 µM ([4]; Homo sapiens, 20 μM alone, FIG. 13B, read-out: inhibition of cell viability) was 69%. The “Test/Control (%)” value (UXF 1138L; 2.3 μg/ml) was 103%, the Test/Control activity class (UXF 1138L; 2.3 μg/ml) was “− (− (T/C = 50))” and the “Test/Control (%)” value (UXF 1138L; 7.5 μg/ml) was 3%. The Test/Control activity class (UXF 1138L; 7.5 μg/ml) was “+++ (+++ (T/C < 10))”, the “Test/Control (%)” value (UXF 1138L; 23. μg/ml) was 2% and the Test/Control activity class (UXF 1138L; 23. μg/ml) was “+++ (+++ (T/C < 10))”. For the same molecule, the “Test/Control (%)” value (UXF 1138L; 75. μg/ml) was 3%, the Test/Control activity class (UXF 1138L; 75. μg/ml) was “+++ (+++ (T/C < 10))” and the “Test/Control (%)” value (UXF 1138L; .75 μg/ml) was 102%. For the same molecule, the Test/Control activity class (UXF 1138L; .75 μg/ml) was “− (− (T/C = 50))”, the “Test/Control (%)” value (MAXF 401NL; 2.3 μg/ml) was 70% and the Test/Control activity class (MAXF 401NL; 2.3 μg/ml) was “− (− (T/C = 50))”. The “Test/Control (%)” value (MAXF 401NL; 7.5 μg/ml) was 9%, the Test/Control activity class (MAXF 401NL; 7.5 μg/ml) was “+++ (+++ (T/C < 10))” and the “Test/Control (%)” value (MAXF 401NL; 23. μg/ml) was 3%. The Test/Control activity class (MAXF 401NL; 23. μg/ml) was “+++ (+++ (T/C < 10))”, the “Test/Control (%)” value (MAXF 401NL; 75. μg/ml) was 3% and the Test/Control activity class (MAXF 401NL; 75. μg/ml) was “+++ (+++ (T/C < 10))”. For the same molecule, the “Test/Control (%)” value (MAXF 401NL; .75 μg/ml) was 103%, the Test/Control activity class (MAXF 401NL; .75 μg/ml) was “− (− (T/C = 50))” and the IC50 [5] was 8.9 µM. For the same molecule, the BCL2 expression [6] was “rapid dose dependent decrease in the levels of the protooncogene Bcl2”.
